Data as given in patent US20060069132A1, “Azolecarboxamide herbicides” (priority 2004, published 2006).

Assays:
[1] = tested on: velvetleaf; assay: Test A pre-/postemergence herbicide test; assay type: in vivo, Abutilon theophrasti
In short: (§1)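 Visual injury scores on a 0–100 scale (100 = complete control) taken about ten days post-treatment in greenhouse against untreated controls; dash means no result. Treatments: preemergence soil spray and postemergence spray to runoff on one- to two-leaf plants 2 to 10 cm tall, surfactant-containing formulation.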

[2] = tested on: velvetleaf; assay: Test C pre-/postemergence herbicide test; assay type: in vivo, Abutilon theophrasti; settings: preemergence
In short: (§2)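 Visual ratings on a 0–100 scale (100 = complete control) made versus untreated controls after 12 to 14 greenhouse days. Test chemicals, formulated in surfactant-containing non-phytotoxic solvent, applied preemergence to planted seeds or postemergence to 1- to 4-leaf plants (2 to 18 cm).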

[3] = tested on: cocklebur; assay: Test C pre-/postemergence herbicide test; assay type: in vivo, Xanthium strumarium; settings: for Plant response rating, Cocklebur: preemergence
In short: as §2

[4] = tested on: corn; assay: Test C pre-/postemergence herbicide test; assay type: in vivo, Zea mays; settings: 250 g ai/ha; scale 0-100; preemergence
In short: as §2

[5] = tested on: barnyardgrass; assay: Test C flooded paddy test; assay type: in vivo, Echinochloa crus-galli
In short: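 Greenhouse test with a 12–14 day hold after application and visual comparison with controls. Emerged plants were 1- to 4-leaf stage (2–18 cm) when sprayed postemergence, and the paddy barnyardgrass was at 2 leaves under flooded conditions. 100 = complete control.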

[6] = tested on: large crabgrass; assay: Test C pre-/postemergence herbicide test; assay type: in vivo, Digitaria sanguinalis; settings: preemergence
In short: as §2

[7] = tested on: redroot pigweed; assay: Test A pre-/postemergence herbicide test; assay type: in vivo, Amaranthus retroflexus
In short: as §1

[8] = tested on: rice; assay: Test C flooded paddy test; assay type: in vivo, Oryza sativa
In short: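 Injury scored visually against controls on a 0 (no effect) to 100 (complete control) scale, 12 to 14 days after treatment in greenhouse. Flooded paddy plants treated at 2-leaf stage; postemergence plants at 1- to 4-leaf stage, 2 to 18 cm tall.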

[9] = tested on: common ragweed; assay: Test C pre-/postemergence herbicide test; assay type: in vivo, Ambrosia elatior; parameters: key to Plant response rating, Ragweed: 0 = no effect, 100 = complete control; settings: preemergence
In short: as §2

[10] = tested on: eastern black nightshade; assay: Test C pre-/postemergence herbicide test; assay type: in vivo, Solanum ptycanthum; settings: preemergence
In short: as §2

[11] = tested on: barnyardgrass; assay: Test A pre-/postemergence herbicide test; assay type: in vivo, Echinochloa crus-galli
In short: as §1

[12] = tested on: yellow nutsedge; assay: Test C pre-/postemergence herbicide test; assay type: in vivo, Cyperus esculentus; settings: preemergence
In short: as §2

[13] = tested on: ducksalad; assay: Test C flooded paddy test; assay type: in vivo, Heteranthera limosa
[14] = Postemergence, 500 g ai/ha, 0 to 100 scale, 0 no effect, 100 complete control
[15] = Postemergence, 2000 g ai/ha, 0 to 100 scale, 0 no effect, 100 complete control
[16] = Preemergence, 2000 g ai/ha, visual rating, 0 to 100 scale (0 no effect, 100 complete control)
[17] = preemergence, 500 g ai/ha, visual injury, 0 to 100 scale (0 no effect, 100 complete control)
[18] = 500 g ai/ha, scale 0 to 100 (0 no effect, 100 complete control), visual, 12 to 14 days
[19] = 125 g ai/ha, scale 0 (no effect) to 100 (complete control), visual, 12 to 14 days
[20] = 125 g ai/ha, scale 0 to 100 (0 no effect, 100 complete control)
[21] = 250 g ai/ha, scale of 0 to 100, 0 is no effect, 100 is complete control
[22] = 500 g ai/ha, visual rating after 12 to 14 days, scale 0 to 100 (0 no effect, 100 complete control)

CCn1nc(C(C)(C)C)cc1C(=O)Nc1cncc(C(=O)N(C)C)n1 [Compound 287]
Velvetleaf plant response rating [1, 14]: 55
Plant response rating, Velvetleaf [1, 15]: 65
Velvetleaf plant response rating [1, 16]: 100
Velvetleaf plant response rating [1, 17]: 50
Plant response rating, Velvetleaf ([2]; 62 g ai/ha, scale 0 to 100): 40
Plant response rating, Velvetleaf ([2]; 250 g ai/ha, scale 0-100): 100
Plant response rating, Velvetleaf [2, 18]: 100
Plant response rating, Cocklebur ([3]; 62 g ai/ha, scale 0 to 100): 0
Plant response rating, Cocklebur [3, 19]: 0
Plant response rating, Cocklebur ([3]; 250 g ai/ha, scale 0-100): 10
Cocklebur plant response rating ([3]; Preemergence, 500 g ai/ha, scale 0 to 100, 0 no effect, 100 complete control): 60
Plant response rating, Corn [4]: 50
Barnyardgrass plant response rating ([5]; 62 g ai/ha, scale 0 to 100 (0 no effect, 100 complete control)): 0
Barnyardgrass plant response rating [5, 20]: 0
Barnyardgrass plant response rating [5, 21]: 0
Plant response rating, Barnyardgrass [5, 22]: 25
Plant response rating, Crabgrass, Large ([6]; 62 g ai/ha, scale 0 to 100): 65
Plant response rating, Crabgrass, Large [6, 19]: 95
Plant response rating, Crabgrass, Large ([6]; 250 g ai/ha, scale 0-100): 95
Plant response rating, Crabgrass, Large [6, 18]: 100
Pigweed plant response rating [7, 14]: 50
Plant response rating, Pigweed [7, 15]: 80
Pigweed plant response rating [7, 16]: 100
Pigweed plant response rating [7, 17]: 100
Rice plant response rating ([8]; 62 g ai/ha, scale 0 to 100): 0
Rice plant response rating [8, 20]: 20
Rice plant response rating [8, 21]: 25
Plant response rating, Rice [8, 22]: 55
Plant response rating, Ragweed ([9]; 62 g ai/ha, scale 0 to 100): 100
Plant response rating, Ragweed ([9]; 250 g ai/ha, scale 0-100): 100
Plant response rating, Ragweed [9, 18]: 100
Plant response rating, Nightshade ([10]; 62 g ai/ha, scale 0 to 100): 95
Plant response rating, Nightshade [10, 19]: 100
Plant response rating, Nightshade ([10]; 250 g ai/ha, scale 0-100): 100
Plant response rating, Nightshade [10, 18]: 100
Barnyardgrass plant response rating [11, 14]: 70
Plant response rating, Barnyardgrass [11, 15]: 90
Barnyardgrass plant response rating [11, 16]: 100
Barnyardgrass plant response rating [11, 17]: 95
Plant response rating, Nutsedge, Yellow ([12]; 62 g ai/ha, scale 0 to 100): 0
Plant response rating, Nutsedge, Yellow [12, 19]: 15
Plant response rating, Nutsedge, Yellow ([12]; 250 g ai/ha, scale 0-100): 60
Plant response rating, Nutsedge, Yellow [12, 18]: 85
Ducksalad plant response rating ([13]; 62 g ai/ha, scale 0 to 100): 0
Ducksalad plant response rating [13, 20]: 30
Ducksalad plant response rating [13, 21]: 40
Plant response rating, Ducksalad [13, 22]: 45
